Data published in PubChem BioAssay (NCI).
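Following 48 hours of exposure in 96-well plates, responses at five concentrations were used to interpolate endpoints linearly. GI50 = concentration required for 50% inhibition of growth. TGI marks complete inhibition of growth.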

Experiments:
Assay in all cases: NCI-60 cell line screen, 48 h
CAKI-1 renal = tested on: CAKI-1 renal
CCRF-CEM leukemia = tested on: CCRF-CEM leukemia
HT29 colon = tested on: HT29 colon
IGROV1 ovarian = tested on: IGROV1 ovarian
NCI-H226 lung = tested on: NCI-H226 lung
NCI-H522 lung = tested on: NCI-H522 lung
OVCAR-4 ovarian = tested on: OVCAR-4 ovarian
SW-620 colon = tested on: SW-620 colon
UACC-62 melanoma = tested on: UACC-62 melanoma
NCI/ADR-RES ovarian = tested on: NCI/ADR-RES ovarian

Row | SMILES | TGI (CAKI-1 renal) [µM] | TGI (CCRF-CEM leukemia) [µM] | TGI (HT29 colon) [µM] | TGI (IGROV1 ovarian) [µM] | TGI (NCI-H226 lung) [µM] | TGI (NCI-H522 lung) [µM] | TGI (OVCAR-4 ovarian) [µM] | TGI (SW-620 colon) [µM] | TGI (UACC-62 melanoma) [µM] | GI50 (CAKI-1 renal) [µM] | GI50 (CCRF-CEM leukemia) [µM] | GI50 (HT29 colon) [µM] | GI50 (NCI-H226 lung) [µM] | GI50 (NCI-H522 lung) [µM] | GI50 (NCI/ADR-RES ovarian) [µM] | TGI (NCI/ADR-RES ovarian) [µM] | GI50 (OVCAR-4 ovarian) [µM] | GI50 (SW-620 colon) [µM] | GI50 (UACC-62 melanoma) [µM]
1 | O=C(Nc1ccccc1-c1nn(C(=S)Nc2ccccc2)c(=S)n(C(=S)Nc2ccccc2)c1=O)C(F)(F)F | > 100 | 62.1 | > 78.9 | > 100 | 76 | 58.5 | > 31.6 | > 64.7 | 44.4 |  |  |  |  |  |  |  |  |  | 
2 | CN(C)CCn1c2c3ccccc3ccc2c2oc(=O)c3ccccc3c21 | 25.9 | > 100 | 16.6 | 55.5 |  | 27.6 | 28.1 | 32.4 | 71 |  |  |  |  |  |  |  |  |  | 
3 | CCOC(=O)C1=C(C(=O)OCC)C2c3ccccc3C=CN2C(C(=O)OCC)=C(SC)S1 (configuration not stated) | > 100 | > 100 | > 100 | > 100 | > 100 | > 100 |  | > 100 | > 100 |  |  |  |  |  |  |  |  |  | 
4 | c1ccc(NCn2cnc3ccccc32)cc1 |  | > 100 | > 100 | > 100 | > 100 | > 100 | > 100 | > 100 | > 100 |  |  |  |  |  |  |  |  |  | 
5 | O=S(=O)(N/N=C/c1cccc(/C=N/NS(=O)(=O)c2ccccc2)c1)c1ccccc1 |  | > 100 | > 100 | > 100 | > 100 |  | > 100 |  | > 100 |  |  |  |  |  |  |  |  |  | 
6 | CC(C)=CCC(O)C1=CC(=O)c2c(O)ccc(O)c2C1=O (configuration not stated) | 0.986 | 0.399 | 5.17 | 3.31 | 2.3 | 0.694 | 4.84 | 3.3 | 3.41 |  |  |  |  |  |  |  |  |  | 
7 | COC(=O)C(CCCN1C(=O)c2ccccc2C1=O)C(=O)OC | > 100 | > 100 | > 100 | > 100 | > 100 | > 100 | > 100 | > 100 | > 100 |  |  |  |  |  |  |  |  |  | 
8 | NC(=O)c1ccccc1NC(=O)C(=O)C(C(=O)c1ccc(Cl)c(Cl)c1)C1OC(=O)c2ccccc21 (configuration not stated) | > 100 | > 100 | > 100 | > 100 | 56.3 |  | > 100 | > 100 | > 100 |  |  |  |  |  |  |  |  |  | 
9 | Nc1c(C(=O)Nc2cccc(C(F)(F)F)c2)sc2nc3c(cc12)CCCCC3 | 10.1 | > 100 | > 100 |  | 16 | 17.7 | 3.9 | > 100 | 16.7 | 2.08 | 5.56 | 7.06 | 1.57 | 2.52 | 3.17 | 22.9 | 1.21 | 6.42 | 2.69
10 | O=C1CN(c2cccc(Cl)c2)C(=O)CN1CCN1CC(=O)N(c2cccc(Cl)c2)CC1=O | > 100 | > 100 | > 100 | > 100 |  | > 100 | > 100 | > 100 | > 100 |  |  |  |  |  |  |  |  |  | 
11 | Cc1ccc(/C=C/C(=O)c2cccc3ccccc23)cc1 | 32.8 | 67 | 43.4 |  | 34.3 | 34.2 | 28 | 26.2 | 33.7 |  |  |  |  |  |  |  |  |  | 
12 | CC(=O)OCCOCNC(=S)N/N=C(\C)c1cnccn1 |  | > 100 | > 100 | > 100 | 79.7 | 97 | > 100 | > 100 | 36.5 |  |  |  |  |  |  |  |  |  | 
